Source: the supplement of paper PMC10307832

Experiments:
Experiment in all cases: relative viability (nuclei count vs DMSO), 5 days (fraction); higher = more cells survive
[1] = compound: Nc1ccccc1NC(=O)c1ccc(CNC(=O)OCc2cccnc2)cc1 [Entinostat] + CC(=O)Nc1cccc(-n2c(=O)n(C3CC3)c(=O)c3c(Nc4ccc(I)cc4F)n(C)c(=O)c(C)c32)c1 [Trametinib] (partner 0.02 µM)
In short: (§1)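 Lung cancer cell lines were seeded in 1536-well plates and dosed by pin tool the next day, with either a single drug or a fixed anchor-drug dose combined with five library-drug doses (not always all listed) spaced in √10 steps. Five days later, one step fixed the cells and stained their nuclei (final 0.05% Triton X-100, 1% formaldehyde, 1 ug/ml Hoechst), and nuclei were counted on 4× images. Relative viability is the nuclei count in treated wells divided by the count in vehicle wells, and each value is the median of duplicate plates.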

[2] = compound: C1COCCN1C2=NC(=NC3=C2OC4=C3C=CC=N4)C5=CC(=CC=C5)NC(=O)C6=CN=C(C=C6)N + CS(=O)(=O)N1CCN(Cc2cc3nc(-c4cccc5[nH]ncc45)nc(N4CCOCC4)c3s2)CC1 [Pictilisib] (partner 1 µM)
In short: as §1

[3] = compound: C1COCCN1C2=NC(=NC3=C2OC4=C3C=CC=N4)C5=CC(=CC=C5)NC(=O)C6=CN=C(C=C6)N + CCNC(=O)c1noc(-c2cc(C(C)C)c(O)cc2O)c1-c1ccc(CN2CCOCC2)cc1 [Luminespib] (partner 0.01 µM)
In short: as §1

[4] = compound: C1COCCN1C2=NC(=NC3=C2OC4=C3C=CC=N4)C5=CC(=CC=C5)NC(=O)C6=CN=C(C=C6)N + CC(C)C[C@H](NC(=O)[C@H](Cc1ccccc1)NC(=O)c1cnccn1)B(O)O [Bortezomib] (partner 0.002 µM)
In short: as §1

Row | Cell Line | relative viability ([1]; first compound 0.02 µM) | relative viability ([1]; first compound 0.06325 µM) | relative viability ([1]; first compound 0.2 µM) | relative viability ([1]; first compound 0.6325 µM) | relative viability ([1]; first compound 2 µM) | relative viability ([2]; first compound 0.02 µM) | relative viability ([2]; first compound 0.06325 µM) | relative viability ([2]; first compound 0.2 µM) | relative viability ([2]; first compound 0.6325 µM) | relative viability ([2]; first compound 2 µM) | relative viability ([3]; first compound 0.02 µM) | relative viability ([3]; first compound 0.06325 µM) | relative viability ([3]; first compound 0.2 µM) | relative viability ([3]; first compound 0.6325 µM) | relative viability ([3]; first compound 2 µM) | relative viability ([4]; first compound 0.02 µM) | relative viability ([4]; first compound 0.06325 µM) | relative viability ([4]; first compound 0.2 µM) | relative viability ([4]; first compound 0.6325 µM) | relative viability ([4]; first compound 2 µM)
1 | NCI-H1650 | 0.594 | 0.585 | 0.507 | 0.372 | 0.376 | 0.505 | 0.588 | 0.526 | 0.592 | 0.483 | 0.186 | 0.202 | 0.198 | 0.233 | 0.166 | 0.179 | 0.23 | 0.205 | 0.191 | 0.188
2 | NCI-H647 | 0.48 | 0.398 | 0.525 | 0.322 | 0.133 | 0.465 | 0.483 | 0.418 | 0.353 | 0.339 | 0.31 | 0.193 | 0.189 | 0.125 | 0.127 | 1.02 | 1.47 | 0.983 | 0.862 | 0.402
3 | NCI-H2126 | 0.592 | 0.506 | 0.525 | 0.347 | 0.312 | 0.455 | 0.524 | 0.486 | 0.521 | 0.442 | 0.892 | 0.894 | 0.871 | 0.845 | 0.566 | 1.07 | 1.18 | 1.1 | 1.03 | 0.879
4 | NCI-H727 | 0.368 | 0.365 | 0.347 | 0.331 | 0.273 | 0.298 | 0.335 | 0.342 | 0.412 | 0.285 | 0.482 | 0.317 | 0.323 | 0.335 | 0.346 | 0.748 | 0.834 | 0.806 | 1.12 | 0.536
5 | EMC-BAC-2 | 0.868 | 0.713 | 0.578 | 0.489 | 0.383 | 0.495 | 0.526 | 0.516 | 0.523 | 0.465 | 1.25 | 1.32 | 1.08 | 1.03 | 0.648 | 1.1 | 1.14 | 1.06 | 1 | 0.784
6 | NCI-H1437 | 0.406 | 0.31 | 0.276 | 0.276 | 0.221 | 0.357 | 0.483 | 0.41 | 0.362 | 0.337 | 0.859 | 1.21 | 1.04 | 1.08 | 0.537 | 0.428 | 0.733 | 0.483 | 0.474 | 0.185
7 | NCI-H2347 | 0.254 | 0.273 | 0.218 | 0.205 | 0.222 | 0.735 | 0.703 | 0.601 | 0.619 | 0.497 | 0.37 | 0.283 | 0.341 | 0.342 | 0.315 | 1.2 | 0.922 | 1.01 | 0.784 | 0.73
8 | NCI-H1666 | 0.817 | 0.883 | 0.763 | 0.611 | 0.572 | 0.466 | 0.38 | 0.404 | 0.311 | 0.41 | 0.88 | 0.996 | 0.957 | 0.727 | 0.63 | 0.781 | 0.902 | 0.735 | 0.588 | 0.486
9 | NCI-H1993 | 0.484 | 0.572 | 0.504 | 0.475 | 0.492 | 0.76 | 0.708 | 0.861 | 0.791 | 0.85 | 0.906 | 0.776 | 0.707 | 0.802 | 0.689 | 1.2 | 1.13 | 0.967 | 0.891 | 0.893
10 | COR-L23 | 0.507 | 0.614 | 0.544 | 0.318 | 0.189 | 1.02 | 1.21 | 0.845 | 0.843 | 0.574 | 0.761 | 0.99 | 0.89 | 0.667 | 0.467 | 1.13 | 1.18 | 1.08 | 1.13 | 0.474
11 | HCC-44 | 1.07 | 0.895 | 0.81 | 0.735 | 0.625 | 0.508 | 0.607 | 0.65 | 0.506 | 0.399 | 0.99 | 1.17 | 1.05 | 1.22 | 0.687 | 0.933 | 1 | 0.849 | 0.943 | 0.726
12 | LU99A | 0.599 | 0.615 | 0.504 | 0.471 | 0.378 | 0.361 | 0.344 | 0.308 | 0.321 | 0.267 | 0.265 | 0.221 | 0.235 | 0.207 | 0.266 | 1.12 | 1.17 | 1.07 | 0.748 | 0.497
13 | NCI-H460 | 0.226 | 0.0831 | 0.0851 | 0.0455 | 0.0239 | 0.411 | 0.384 | 0.255 | 0.355 | 0.294 | 0.0333 | 0.035 | 0.0284 | 0.0243 | 0.0278 | 1.45 | 1.13 | 1.27 | 1.02 | 0.125
14 | NCI-H650 | 1.06 | 1 | 0.917 | 0.708 | 0.487 | 0.948 | 0.947 | 0.861 | 0.77 | 0.741 | 0.873 | 0.756 | 0.788 | 0.783 | 0.698 | 0.773 | 0.906 | 0.75 | 0.909 | 0.529
15 | NCI-H1975 | 0.373 | 0.32 | 0.313 | 0.223 | 0.169 | 0.276 | 0.309 | 0.278 | 0.273 | 0.257 | 0.157 | 0.148 | 0.202 | 0.29 | 0.3 | 0.352 | 0.419 | 0.397 | 0.359 | 0.299
16 | NCI-H1355 | 0.443 | 0.402 | 0.337 | 0.344 | 0.243 | 0.336 | 0.424 | 0.413 | 0.423 | 0.459 | 0.708 | 0.741 | 0.7 | 0.58 | 0.693 | 1.24 | 1.25 | 1.27 | 1.21 | 1.06
17 | NCI-H1755 | 0.721 | 0.751 | 0.605 | 0.565 | 0.44 | 0.481 | 0.494 | 0.377 | 0.405 | 0.357 | 0.447 | 0.666 | 0.436 | 0.235 | 0.239 | 0.947 | 1.08 | 0.904 | 0.918 | 0.613
18 | NCI-H2009 | 0.312 | 0.354 | 0.325 | 0.294 | 0.238 | 0.8 | 0.819 | 0.804 | 0.804 | 0.603 | 1.07 | 1.07 | 0.999 | 1.01 | 0.725 | 0.977 | 1.11 | 0.969 | 0.977 | 0.727
19 | NCI-H3122 | 0.265 | 0.259 | 0.27 | 0.208 | 0.212 | 0.621 | 0.588 | 0.531 | 0.515 | 0.451 | 0.0667 | 0.0713 | 0.0835 | 0.0904 | 0.077 | 0.985 | 1.01 | 1.03 | 1.05 | 0.931
20 | HOP-62 | 0.412 | 0.435 | 0.392 | 0.351 | 0.18 | 0.792 | 0.82 | 0.698 | 0.876 | 0.499 | 0.882 | 0.983 | 0.833 | 0.863 | 0.44 | 0.743 | 0.848 | 0.897 | 0.967 | 0.291
21 | NCI-H661 | 0.62 | 0.605 | 0.715 | 0.536 | 0.363 | 0.441 | 0.395 | 0.392 | 0.375 | 0.163 | 0.894 | 0.961 | 0.962 | 0.958 | 0.52 | 0.772 | 0.747 | 0.741 | 0.657 | 0.63
22 | BEN | 1.18 | 1.04 | 0.79 | 0.63 | 0.441 | 0.587 | 0.556 | 0.597 | 0.501 | 0.589 | 0.479 | 0.312 | 0.313 | 0.328 | 0.42 | 0.961 | 0.738 | 0.764 | 0.761 | 0.711
23 | ChaGo-K-1 | 0.948 | 0.933 | 0.897 | 0.785 | 0.64 | 0.789 | 0.61 | 0.547 | 0.633 | 0.624 | 0.635 | 0.582 | 0.513 | 0.526 | 0.518 | 0.938 | 1.01 | 0.568 | 1.12 | 0.746
24 | NCI-H1792 | 0.479 | 0.431 | 0.366 | 0.442 | 0.155 | 0.26 | 0.27 | 0.258 | 0.17 | 0.288 | 0.286 | 0.487 | 0.405 | 0.286 | 0.331 | 1.2 | 0.905 | 0.994 | 0.86 | 0.374
25 | NCI-H2085 | 0.552 | 0.765 | 0.508 | 0.499 | 0.408 | 0.441 | 0.474 | 0.464 | 0.446 | 0.421 | 0.386 | 0.46 | 0.402 | 0.372 | 0.327 | 1.02 | 1.1 | 1.05 | 0.943 | 0.769
26 | LCLC-103H | 0.718 | 0.605 | 0.713 | 0.588 | 0.561 | 0.533 | 0.647 | 0.555 | 0.678 | 0.551 | 0.99 | 1.04 | 0.89 | 1.1 | 0.461 | 0.969 | 1.24 | 1 | 0.978 | 0.722
